Reference: US20260000689A1, “TARGETING CREB-HEPARAN SULFATE-FGF PATHWAY FOR CANCER TREATMENT” (UNIVERSITY OF SOUTH FLORIDA, priority 2022, published 2026)
Entries after “also recorded” stand apart in the source; their conditions may differ.

Key:
Myc-CaP cells [1] = test: Colony formation of EXT1-overexpressing vs EV MyC-CaP cells with FGFR inhibitor; assay type: cell-based, mice; details: 1, 5, 10 μm AZD4547 vs DMSO
[2] = test system: Myc-CaP cells with EXT1-overexpression; test: s.c. xenograft prostate cancer mouse model, EXT1-overexpressing Myc-CaP cells; assay type: in vivo, FVB/NJ mice
Text: (§1) FIG. 7A-FIG. 7F show inhibition of CREB or HS attenuates prostate cancer growth. […] 7A) and HS (FIG. 7B) in Myc-CaP cells, and the in vitro cell growth (FIG. 7C) and migration (FIG. 7D).
(§2) FIG. 22E and FIG. 22F show myc-Cap cells in vivo for KG-501 (FIG. 22E) and Surfen (FIG. 22F). FIG. 22G and FIG. 22H show Ext1-overexpressing myc-Cap cells in vivo for KG-501 (FIG. 22G) and Surfen (FIG. 22H).

EXT1 mRNA = test: Expression of EXT1 mRNA in Myc-CaP cells; assay type: cell-based, mice
Text: as §1, §2

Myc-CaP cells [3] = test: In vitro cell growth of Myc-CaP cells; assay type: cell-based, mice
Text: as §1, §2

Myc-CaP cells [4] = test: s.c. xenograft prostate cancer mouse model, Myc-CaP cells; assay type: in vivo, FVB/NJ mice; details: without EXT1-overexpression
Text: as §1, §2

HS = test: Expression of HS (heparan sulfate staining) in Myc-CaP cells; assay type: cell-based, mice
Text: as §1, §2

Myc-CaP cells [5] = test: Cell migration of Myc-CaP cells; assay type: cell-based, mice
Text: as §1, §2

| Structure (SMILES) | resistance of EXT1-overexpressing cells to FGFR inhibitor in colony formation (Myc-CaP cells [1]) | growth of EXT1-overexpressing Myc-CaP cells in s.c. xenograft prostate cancer mouse model [2] | expression of EXT1 mRNA (EXT1 mRNA) | in vitro cell growth (Myc-CaP cells [3]) | growth of Myc-CaP cells in s.c. xenograft prostate cancer mouse model (Myc-CaP cells [4]) | expression of HS (HS) | migration (Myc-CaP cells [5]) | growth of Myc-CaP cells in s.c. xenograft prostate cancer mouse model (Myc-CaP cells [4]; listed as surfen) |
| --- | --- | --- | --- | --- | --- | --- | --- | --- |
| COc1cc(CCc2cc(NC(=O)c3ccc(N4C[C@@H](C)N[C@@H](C)C4)cc3)n[nH]2)cc(OC)c1 [AZD4547] | more resistant | blocks EXT1-overexpression-enhanced prostate cancer growth in vivo | – | – | – | – | – | – |
| O=C(Nc1ccc(Cl)cc1)c1cc2ccccc2cc1OP(=O)(O)O [KG-501, 2-naphthol-AS-E-phosphate] | – | efficiently inhibited; also recorded: attenuated prostate cancer growth in vivo | does-dependently inhibited | does-dependently inhibited | efficiently inhibited; also recorded: attenuated prostate cancer growth in vivo | does-dependently inhibited | does-dependently inhibited | – |
| Cc1cc(N)c2cc(NC(=O)Nc3ccc4nc(C)cc(N)c4c3)ccc2n1 [Surfen, bis-2-methyl-4-amino-quinolyl-6-carbamide] | – | efficiently inhibited; also recorded: attenuated prostate cancer growth in vivo | – | – | efficiently inhibited; also recorded: attenuated prostate cancer growth in vivo | – | – | blocked PCa growth |
